Assays:
[1] = biological target: GDP-bound NRAS wild-type protein (Homo sapiens, UniProt P01111); assay: Binding to NRAS by surface plasmon resonance (SPR), Single Cycle Kinetics; conditions: SPR, GDP-bound NRAS wild-type vs GDP-bound KRAS wild-type
[2] = biological target: GDP-bound HRAS wild-type protein (Homo sapiens, UniProt P01112); assay: Binding to HRAS by surface plasmon resonance (SPR), Single Cycle Kinetics; conditions: SPR, GDP-bound HRAS wild-type vs GDP-bound KRAS wild-type
GDP-bound HRAS wild-type protein, sequence (P01112 whole entry): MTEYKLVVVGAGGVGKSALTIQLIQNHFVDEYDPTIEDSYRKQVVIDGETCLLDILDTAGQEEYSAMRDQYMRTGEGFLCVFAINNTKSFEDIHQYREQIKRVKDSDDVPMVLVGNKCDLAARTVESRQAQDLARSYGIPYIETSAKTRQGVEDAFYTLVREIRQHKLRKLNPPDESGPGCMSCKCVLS

GDP-bound NRAS wild-type protein, sequence (P01111 whole entry): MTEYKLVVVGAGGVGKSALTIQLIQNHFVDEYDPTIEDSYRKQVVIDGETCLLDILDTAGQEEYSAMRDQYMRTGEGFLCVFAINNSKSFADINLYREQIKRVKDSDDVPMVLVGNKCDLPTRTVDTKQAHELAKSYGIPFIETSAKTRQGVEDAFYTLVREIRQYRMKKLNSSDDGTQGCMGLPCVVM

SMILES	NRAS/KRAS (ratio of KD value with respect to NRAS to KD value with respect to KRAS) [1]	HRAS/KRAS (ratio of KD value with respect to HRAS to KD value with respect to KRAS) [2]
CCO[C@@H]1C[C@H]2C(=O)NC3(CC(C)(C)C3)C(=O)N(C)[C@@H](C(CC)CC)C(=O)N(C)[C@H](C(=O)N(C)C)CC(=O)N(C)[C@@H](CC3CCC3)C(=O)N[C@@H]([C@@H](C)CC)C(=O)N(C)CC(=O)N(C)[C@H]3C/C=C\CCN(C3=O)[C@@H](Cc3ccc(C)cc3)C(=O)N(C)CC(=O)N[C@@H](CCc3ccc(C(F)(F)F)c(OC)c3)C(=O)N2C1 [PP2172]	A (a compound having 10 or more and less than 20 is denoted as A)	B (a compound having 3 or more and less than 10 is denoted as B)
CCO[C@@H]1C[C@H]2C(=O)NC3(CC(C)(C)C3)C(=O)N(C)[C@@H](C(CC)CC)C(=O)N(C)[C@H](C(=O)N(C)C)CC(=O)N(C)[C@@H](C(C)C)C(=O)N[C@@H]([C@@H](C)CC)C(=O)N(C)CC(=O)N(C)[C@H]3C/C=C\CCN(C3=O)[C@@H](Cc3ccc(C)cc3)C(=O)N(C)CC(=O)N[C@@H](CCc3ccc(C(F)(F)F)c(OC)c3)C(=O)N2C1 [PP2173]	A (a compound having 10 or more and less than 20 is denoted as A)	A (a compound having 10 or more and less than 20 is denoted as A)
CCO[C@@H]1C[C@H]2C(=O)NC3(CC(C)(C)C3)C(=O)N(C)[C@@H](C(CC)CC)C(=O)N(C)[C@H](C(=O)N3CCCC3)CC(=O)N(C)[C@@H](COC)C(=O)N[C@@H]([C@@H](C)CC)C(=O)N(C)CC(=O)N(C)[C@H]3C/C=C\CCN(C3=O)[C@@H](Cc3ccc(C(F)(F)F)cc3)C(=O)N(C)CC(=O)N[C@@H](CCc3ccc(Cl)c(Cl)c3)C(=O)N2C1 [PP2174]	AA (a compound having 20 or more is denoted as AA)	A (a compound having 10 or more and less than 20 is denoted as A)
CCC[C@H]1C(=O)N[C@@H]([C@@H](C)CC)C(=O)N(C)CC(=O)N(C)[C@H]2C/C=C\CCN(C2=O)[C@@H](Cc2ccc(C(F)(F)F)cc2)C(=O)N(C)CC(=O)N[C@@H](CCc2ccc(Cl)c(Cl)c2)C(=O)N2C[C@H](OCC)C[C@H]2C(=O)NC2(CC(C)(C)C2)C(=O)N(C)[C@@H](C(CC)CC)C(=O)N(C)[C@H](C(=O)N(C)C)CC(=O)N1C [PP2175]	AA (a compound having 20 or more is denoted as AA)	A (a compound having 10 or more and less than 20 is denoted as A)
CCO[C@@H]1C[C@H]2C(=O)NC3(CC(C)(C)C3)C(=O)N(C)[C@@H](C(CC)CC)C(=O)N(C)[C@H](C(=O)N(C)C)CC(=O)N(C)[C@@H](CC(C)C)C(=O)N[C@@H]([C@@H](C)CC)C(=O)N(C)CC(=O)N(C)[C@H]3C/C=C\CCN(C3=O)[C@@H](Cc3ccc(C(F)(F)F)cc3)C(=O)N(C)CC(=O)N[C@@H](CCc3ccc(Cl)c(Cl)c3)C(=O)N2C1 [PP2176]	AA (a compound having 20 or more is denoted as AA)	A (a compound having 10 or more and less than 20 is denoted as A)
CCO[C@@H]1C[C@H]2C(=O)NC3(CC(C)(C)C3)C(=O)N(C)[C@@H](C(CC)CC)C(=O)N(C)[C@H](C(=O)N3CCCC3)CC(=O)N(C)[C@@H](C)C(=O)N[C@@H]([C@@H](C)CC)C(=O)N(C)CC(=O)N(C)[C@H]3C/C=C\CCN(C3=O)[C@@H](Cc3ccc(C(F)(F)F)cc3)C(=O)N(C)CC(=O)N[C@@H](CCc3ccc(Cl)c(Cl)c3)C(=O)N2C1 [PP2178]	AA (a compound having 20 or more is denoted as AA)	A (a compound having 10 or more and less than 20 is denoted as A)
CCO[C@@H]1C[C@H]2C(=O)NC3(CC(C)(C)C3)C(=O)N(C)[C@@H](C(CC)CC)C(=O)N(C)[C@H](C(=O)N(C)C)CC(=O)N(C)[C@@H](CC)C(=O)N[C@@H]([C@@H](C)CC)C(=O)N(C)CC(=O)N(C)[C@H]3C/C=C\CCN(C3=O)[C@@H](Cc3ccc(C(F)(F)F)cc3)C(=O)N(C)CC(=O)N[C@@H](CCc3ccc(Cl)c(Cl)c3)C(=O)N2C1 [PP2179]	AA (a compound having 20 or more is denoted as AA)	A (a compound having 10 or more and less than 20 is denoted as A)
CCO[C@@H]1C[C@H]2C(=O)NC3(CC(C)(C)C3)C(=O)N(C)[C@@H](C(CC)CC)C(=O)N(C)[C@H](C(=O)N(C)C)CC(=O)N(C)[C@@H](CC3CCC3)C(=O)N[C@@H]([C@@H](C)CC)C(=O)N(C)CC(=O)N(C)[C@H]3C/C=C\CCN(C3=O)[C@@H](Cc3ccc(C(F)(F)F)cc3)C(=O)N(C)CC(=O)N[C@@H](CCc3ccc(Cl)c(Cl)c3)C(=O)N2C1 [PP2180]	AA (a compound having 20 or more is denoted as AA)	A (a compound having 10 or more and less than 20 is denoted as A)
CCO[C@@H]1C[C@H]2C(=O)NC3(CC(C)(C)C3)C(=O)N(C)[C@@H](C(CC)CC)C(=O)N(C)[C@H](C(=O)N(C)C)CC(=O)N(C)[C@@H](C(C)C)C(=O)N[C@@H]([C@@H](C)CC)C(=O)N(C)CC(=O)N(C)[C@H]3C/C=C\CCN(C3=O)[C@@H](Cc3ccc(C(F)(F)F)cc3)C(=O)N(C)CC(=O)N[C@@H](CCc3ccc(Cl)c(Cl)c3)C(=O)N2C1 [PP2181]	AA (a compound having 20 or more is denoted as AA)	A (a compound having 10 or more and less than 20 is denoted as A)
CCO[C@@H]1C[C@H]2C(=O)NC3(CC(C)(C)C3)C(=O)N(C)[C@@H](C(CC)CC)C(=O)N(C)[C@H](C(=O)N(C)C)CC(=O)N(C)[C@@H](CC3CC3)C(=O)N[C@@H]([C@@H](C)CC)C(=O)N(C)CC(=O)N(C)[C@H]3C/C=C\CCN(C3=O)[C@@H](Cc3ccc(C)cc3)C(=O)N(C)CC(=O)N[C@@H](CCc3ccc(Cl)c(Cl)c3)C(=O)N2C1 [PP2182]	AA (a compound having 20 or more is denoted as AA)	A (a compound having 10 or more and less than 20 is denoted as A)
CCC[C@H]1C(=O)N[C@@H]([C@@H](C)CC)C(=O)N(C)CC(=O)N(C)[C@H]2C/C=C\CCN(C2=O)[C@@H](Cc2ccc(C)cc2)C(=O)N(C)CC(=O)N[C@@H](CCc2ccc(Cl)c(Cl)c2)C(=O)N2C[C@H](OCC)C[C@H]2C(=O)NC2(CC(C)(C)C2)C(=O)N(C)[C@@H](C(CC)CC)C(=O)N(C)[C@H](C(=O)N(C)C)CC(=O)N1C [PP2184]	AA (a compound having 20 or more is denoted as AA)	A (a compound having 10 or more and less than 20 is denoted as A)
CCO[C@@H]1C[C@H]2C(=O)NC3(CC(C)(C)C3)C(=O)N(C)[C@@H](C(CC)CC)C(=O)N(C)[C@H](C(=O)N(C)C)CC(=O)N(C)[C@@H](CC(C)C)C(=O)N[C@@H]([C@@H](C)CC)C(=O)N(C)CC(=O)N(C)[C@H]3C/C=C\CCN(C3=O)[C@@H](Cc3ccc(C)cc3)C(=O)N(C)CC(=O)N[C@@H](CCc3ccc(Cl)c(Cl)c3)C(=O)N2C1 [PP2185]	AA (a compound having 20 or more is denoted as AA)	A (a compound having 10 or more and less than 20 is denoted as A)
CCO[C@@H]1C[C@H]2C(=O)NC3(CC(C)(C)C3)C(=O)N(C)[C@@H](C(CC)CC)C(=O)N(C)[C@H](C(=O)N(C)C)CC(=O)N(C)[C@@H](C)C(=O)N[C@@H]([C@@H](C)CC)C(=O)N(C)CC(=O)N(C)[C@H]3C/C=C\CCN(C3=O)[C@@H](Cc3ccc(C)cc3)C(=O)N(C)CC(=O)N[C@@H](CCc3ccc(Cl)c(Cl)c3)C(=O)N2C1 [PP2186]	AA (a compound having 20 or more is denoted as AA)	A (a compound having 10 or more and less than 20 is denoted as A)
CCO[C@@H]1C[C@H]2C(=O)NC3(CC(C)(C)C3)C(=O)N(C)[C@@H](C(CC)CC)C(=O)N(C)[C@H](C(=O)N3CCCC3)CC(=O)N(C)[C@@H](C)C(=O)N[C@@H]([C@@H](C)CC)C(=O)N(C)CC(=O)N(C)[C@H]3C/C=C\CCN(C3=O)[C@@H](Cc3ccc(C)cc3)C(=O)N(C)CC(=O)N[C@@H](CCc3ccc(Cl)c(Cl)c3)C(=O)N2C1 [PP2187]	AA (a compound having 20 or more is denoted as AA)	A (a compound having 10 or more and less than 20 is denoted as A)
CCO[C@@H]1C[C@H]2C(=O)NC3(CC(C)(C)C3)C(=O)N(C)[C@@H](C(CC)CC)C(=O)N(C)[C@H](C(=O)N(C)C)CC(=O)N(C)[C@@H](CC)C(=O)N[C@@H]([C@@H](C)CC)C(=O)N(C)CC(=O)N(C)[C@H]3C/C=C\CCN(C3=O)[C@@H](Cc3ccc(C)cc3)C(=O)N(C)CC(=O)N[C@@H](CCc3ccc(Cl)c(Cl)c3)C(=O)N2C1 [PP2188]	AA (a compound having 20 or more is denoted as AA)	A (a compound having 10 or more and less than 20 is denoted as A)
CC[C@H](C)[C@@H]1NC(=O)[C@H](CC(C)C)N(C)C(=O)C[C@@H](C(=O)N(C)C)N(C)C(=O)[C@H](C2CCCC2)N(C)C(=O)C2(CCCC2)NC(=O)[C@@H]2C[C@@H](C)CN2C(=O)[C@H](CCc2cc(F)c(C(F)(F)F)c(F)c2)NC(=O)CN(C)C(=O)[C@H](Cc2ccc(C)cc2)N2CC/C=C\C[C@@H](C2=O)N(C)C(=O)CN(C)C1=O [PP2189]	A (a compound having 10 or more and less than 20 is denoted as A)	A (a compound having 10 or more and less than 20 is denoted as A)
